Experiments:
[1] = system: patients with relapsing multiple sclerosis (RMS); experiment: OPTIMUM phase 3 study (NCT02425644): systemic corticosteroid (SCS) use for treatment of relapse, ponesimod 20 mg vs teriflunomide 14 mg; format: in vivo, human; settings: for proportion of patients who received ≥1 SCS therapy for treatment of relapse / least squares mean of accumulated steroid dose (prednisone equivalent doses) for treatment of relapse: full analysis set; for proportion of patients who received ≥1 SCS therapy for treatment of relapse: between study treatment start and EOS, PON 20 mg vs TER 14 mg, P<0.0001
Method: Subjects were evaluated according to the treatment they were randomized to. • Primary efficacy variable/primary timepoint: The primary endpoint was annualized relapse rate (ARR) up to the end of study (EOS) defined as the number of confirmed relapses per subject-year. All available data up to EOS, regardless of treatment discontinuation was included (ITT approach). Co-Administration of Ponesimod with Corticosteroids
OPTIMUM was a phase 3, double-blind, randomized clinical trial that evaluated the efficacy, safety, and tolerability of PON (20 mg) versus TER (14 mg) in patients with RMS.
Patients with RMS aged 18 to 55 years with a relapsing course (i.e., RMS or secondary progressive MS with superimposed relapses), an Expanded Disability Status Scale (EDSS) score of 0-5.5, and recent clinical or magnetic resonance imaging activity were enrolled.
Patients were excluded from the primary analysis if they received treatment with SCS, unless it was for a multiple sclerosis (MS) relapse or short-term treatment of pulmonary conditions.
In this analysis, the proportions of patients in each treatment group who received concomitant treatment with ≥1 SCS to treat MS relapse between the start of study treatment and end of study (EOS) were compared. In addition, the mean accumulated steroid dose (prednisone equivalent doses in mg) administered to treat relapse between start of study treatment and EOS and between end of treatment (EOT) plus follow-up time was assessed.
Data are shown for analyses of the full analysis set and analyses stratified by baseline EDSS score (baseline EDSS score≤3.5 versus >3.5), prior MS treatment (disease modifying treatment [DMT] within the past 2 years versus no DMT within the past 2 years), or sex (male versus female).
The proportion of patients who received ≥1 SCS therapy for treatment of relapse is provided by treatment group; group differences were examined using Cochran-Mantel Haenszel (CMH) test and stratified by baseline EDSS and prior treatment with DMT.
The between-group difference for the mean accumulated steroid dose for treatment of relapse was evaluated using analysis of covariance models with accumulated steroid dose as the dependent variable, treatment as factor, and EDSS baseline group, and prior treatment with disease-modifying therapy within 2 years prior to randomization as covariates. EDSS baseline group was removed from the model for analyses stratified by baseline EDSS score.

[2] = in vivo; cited from earlier work
[3] = system: peripheral blood lymphocyte count; settings: cited from earlier work
[4] = from start of study treatment to EOS, P=0.0005
[5] = from start of study treatment to EOT+7 days of follow up, P=0.0007

Structure (SMILES): C/C(O)=C(\C#N)C(=O)Nc1ccc(C(F)(F)F)cc1 [TER]
- proportion of patients who received ≥1 SCS therapy for treatment of relapse [1]: 40.10%
- least squares mean of accumulated steroid dose (prednisone equivalent doses) for treatment of relapse [1, 4]: 4257.2 mg
- least squares mean of accumulated steroid dose (prednisone equivalent doses) for treatment of relapse [1, 5]: 3957.4 mg
- elimination from plasma [2]: eliminated slowly

Structure (SMILES): CCC/N=C1\S/C(=C\c2ccc(OC[C@H](O)CO)c(Cl)c2)C(=O)N1c1ccccc1C [PON, (R)-5-[3-chloro-4-(2,3-dihydroxy-propoxy)-benz[Z]ylidene]-2-([Z]-propylimino)-3-o-tolyl-thiazolidin-4-one]
- reduction of annualized relapse rate (ARR) ([1]; PON 20 mg vs teriflunomide (TER) 14 mg, patients with RMS): superior efficacy
- proportion of patients who received ≥1 SCS therapy for treatment of relapse [1]: 29.1%
- least squares mean of accumulated steroid dose (prednisone equivalent doses) for treatment of relapse [1, 4]: 3207.1 mg
- least squares mean of accumulated steroid dose (prednisone equivalent doses) for treatment of relapse [1, 5]: 2977.1 mg
- proportion of patients who received ≥1 SCS therapy, stratified by baseline disability ([1]; only among patients with baseline EDSS≤3.5, compared with teriflunomide group): significantly smaller proportion
- peripheral blood lymphocyte count ([3]; blocking the egress of lymphocytes from lymphoid organs): rapid, dose-dependent, and reversible reduction
- monocyte, natural killer (NK) cell and neutrophil counts ([3]; in vivo): not reduced
